The source made the active and inactive calls.
Assays:
[1] = cytotoxicity toward NIH3T3 fibroblasts, dose response, counter-screen, cell-based, ATP luminescence, mouse fibroblasts (AID 2010); assay type: functional;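 also: cells exposed to compound for about 90 hours before reading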
[2] = tested on: Streptococcus sp. 'group A'; test: growth inhibition of control SK(-) GAS strain, dose response, counter-screen for streptokinase expression inhibitor project, luminescence, kanamycin, BacTiterGlo, confirmation (AID 1900); assay type: functional, organism-based
[3] = tested on: Streptococcus; test: Group A Streptococcus viability loss, dose response, counter-screen for streptokinase expression inhibitor project, luminescence, BacTiterGlo (AID 1915); assay type: functional, organism-based;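 also: potency for reduction of bacterial viability or growth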
[4] = target: Heat shock protein HSP 90-alpha (Homo sapiens, UniProt P07900); assay type: functional, organism-based
[5] = target: Beta Lactamase (Pseudomonas aeruginosa, UniProt Q932Y6); test: beta-lactamase reporter inhibitor potency, dose response, artefact control for TLR9-MyD88 binding inhibitor project, BLA reporter cells, FRET fluorescence (AID 588341); assay type: cell-based;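 also: cell based assay in CHO-K1 cells stably expressing beta-lactamase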
[6] = target: Glucose-6-phosphate 1-dehydrogenase (Homo sapiens, UniProt P11413); test: human G6PD enzyme inhibitors, dose response, selectivity assay for P. falciparum G6PD inhibitor project, biochemical, fluorescence (AID 504792); assay type: functional
[7] = target: T1, Streptokinase A (Streptococcus pyogenes serotype M1, UniProt P10520); test: S. pyogenes streptokinase expression inhibitors, potency, dose response, plasminogen activation absorbance, OD405 (AID 1914); assay type: functional, Streptococcus pyogenes M1 GAS;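 also: secreted streptokinase activity via plasminogen activation per viability signal from cell pellet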
T1 sequence (P10520 whole entry): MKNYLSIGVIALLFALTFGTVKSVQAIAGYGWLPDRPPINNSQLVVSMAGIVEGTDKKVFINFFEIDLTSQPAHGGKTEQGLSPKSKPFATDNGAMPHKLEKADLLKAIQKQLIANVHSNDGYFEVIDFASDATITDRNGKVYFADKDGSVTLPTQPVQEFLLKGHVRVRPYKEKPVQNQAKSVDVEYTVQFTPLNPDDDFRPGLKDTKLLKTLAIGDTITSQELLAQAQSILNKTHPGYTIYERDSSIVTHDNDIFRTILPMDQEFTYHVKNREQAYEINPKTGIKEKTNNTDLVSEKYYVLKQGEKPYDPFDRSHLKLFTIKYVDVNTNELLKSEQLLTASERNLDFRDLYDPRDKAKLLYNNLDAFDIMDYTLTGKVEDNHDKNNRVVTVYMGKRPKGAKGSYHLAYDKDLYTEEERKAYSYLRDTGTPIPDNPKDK

[8] = target: Melanocortin receptor 4 (Homo sapiens, UniProt P32245); test: MC4R antagonist potency on cAMP, dose response, cell-based, TR-FRET, biased antagonists (AID 602298); assay type: functional;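 also: antagonist potency against agonist-stimulated cAMP production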
[9] = nonselective inhibitors of cellular cAMP signaling, dose response, counter-screen for MC4R biased antagonist project, cell-based, TR-FRET cAMP detection (AID 602305); assay type: functional;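 also: U2OS cells stimulated with forskolin near its EC80 as the cAMP inducer; potency is for inhibition of forskolin-stimulated cAMP signaling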
[10] = tested on: CHO; test: cytotoxicity in TLR9-MyD88 CHO cells, dose response, cytotoxicity control for TLR9-MyD88 binding inhibitor project, cell-based, luminescence (AID 588339); assay type: functional, hamster; settings: Cricetulus griseus;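 also: CHO cells stably coexpressing TLR9 and MyD88 fusions from primary screen; compound exposure lasted 48 hours before viability readout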
[11] = inhibitors of intracellular T. cruzi replication, confirmation, NIH3T3 host cells, beta-gal luminescence (AID 2044); assay type: functional, cell-based;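 also: intracellular parasites grown in NIH/3T3 mouse fibroblasts as host cells; luminescent beta-galactosidase reporter signal from transgenic T. cruzi replicating inside host cells; inhibitors lower the luminescence signal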
[12] = cells; assay type: functional
[13] = THP-1 cell cytotoxicity, dose response, cytotoxicity control, set 3 (AID 504852); assay type: functional; settings: Mycobacterium tuberculosis
[14] = HepG2 cell cytotoxicity, cytotoxicity control, set 4 (AID 504910); assay type: functional; settings: Mycobacterium tuberculosis
[15] = THP-1 cell cytotoxicity, cytotoxicity control, set 4 (AID 504911); assay type: functional; settings: Mycobacterium tuberculosis
[16] = A Cell Based Secondary Assay to Explore Cytotoxicity in THP-1 Cells of Compounds that Modulate Mycobacterium tuberculosis in Media Containing Glycerol versus Media without Glycerol (2).; assay type: functional
[17] = A Cell Based Secondary Assay to Explore Cytotoxicity in HepG2 Cells of Compounds that Modulate Mycobacterium tuberculosis in Media Containing Glycerol versus Media without Glycerol (2).; assay type: functional
[18] = HepG2 cell cytotoxicity, dose response, cytotoxicity control, set 3 (AID 504853); assay type: functional; settings: Mycobacterium tuberculosis
[19] = Vero cell cytotoxicity, cytotoxicity control for M. tuberculosis inhibitor project, purified and synthesized samples, set 3 (AID 504684); assay type: functional
[20] = inhibitors of SNCA 5'UTR-driven reporter translation, confirmation, H4 neuroglioma cells, luminescence (AID 1988); assay type: functional, cell-based
[21] = tested on: BJ; test: cells; assay type: functional, cell-based; settings: Homo sapiens
[22] = tested on: BJ; test: cytotoxicity toward BJ-TERT fibroblasts, dose response, cell-based, RAS-independent, luminescence (AID 1933); assay type: functional; settings: Homo sapiens
[23] = tested on: BJ; test: cytotoxicity toward BJ-TERT-LT-ST fibroblasts, dose response, cell-based, RAS-independent, luminescence (AID 1935); assay type: functional; settings: Homo sapiens;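 also: BJ fibroblasts immortalized with TERT plus LT and ST oncogenes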
[24] = cytotoxicity toward DRD oncogenic fibroblasts, dose response, cell-based, non-viral oncogenic, luminescence (AID 1934); assay type: functional; settings: Homo sapiens
[25] = cytotoxicity in HEK-293T cells, dose response, cytotoxicity control for TCR NF-kB inhibitor project, luminescence, T-cell screen hits (AID 489026); assay type: functional, cell-based;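 also: cells exposed to compound about 14 hours before the viability readout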
[26] = target: T2, High affinity choline transporter 1 (Homo sapiens, UniProt Q9GZV3); test: CHT activators, dose response, cell-based, 10-point CRC, membrane potential dye (AID 602376); assay type: functional
T2 sequence (Q9GZV3 whole entry): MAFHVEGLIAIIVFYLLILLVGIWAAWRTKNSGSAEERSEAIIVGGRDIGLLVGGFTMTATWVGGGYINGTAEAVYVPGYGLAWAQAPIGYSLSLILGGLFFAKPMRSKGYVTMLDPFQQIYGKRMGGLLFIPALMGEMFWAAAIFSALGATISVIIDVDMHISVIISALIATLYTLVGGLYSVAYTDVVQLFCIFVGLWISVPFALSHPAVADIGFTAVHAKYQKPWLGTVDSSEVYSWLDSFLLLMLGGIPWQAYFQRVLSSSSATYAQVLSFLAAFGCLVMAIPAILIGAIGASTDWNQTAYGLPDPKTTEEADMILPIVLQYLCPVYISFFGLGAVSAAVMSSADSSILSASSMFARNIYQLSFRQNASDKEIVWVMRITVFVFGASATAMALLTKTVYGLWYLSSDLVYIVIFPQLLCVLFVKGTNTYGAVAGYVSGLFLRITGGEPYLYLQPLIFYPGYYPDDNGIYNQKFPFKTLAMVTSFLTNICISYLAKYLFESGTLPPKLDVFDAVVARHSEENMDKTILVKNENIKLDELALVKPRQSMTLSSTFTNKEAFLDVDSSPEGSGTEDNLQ

[27] = Luminescence Cell-Based Dose Response HTS to Identify Inhibitors of 5'UTR Stem-Loop Driven Prion Protein mRNA Translation in H4 Neuroglioblastoma Cells. [Related pubchem assays: 1827 (Project Summary), 1813 (Primary HTS)]; assay type: functional
[28] = inhibitors of firefly luciferase expression or activity, dose response, H4 neuroglioma cells, luminescence (AID 1990); assay type: functional, cell-based

Chain of Glucose-6-phosphate 1-dehydrogenase (P11413 whole entry): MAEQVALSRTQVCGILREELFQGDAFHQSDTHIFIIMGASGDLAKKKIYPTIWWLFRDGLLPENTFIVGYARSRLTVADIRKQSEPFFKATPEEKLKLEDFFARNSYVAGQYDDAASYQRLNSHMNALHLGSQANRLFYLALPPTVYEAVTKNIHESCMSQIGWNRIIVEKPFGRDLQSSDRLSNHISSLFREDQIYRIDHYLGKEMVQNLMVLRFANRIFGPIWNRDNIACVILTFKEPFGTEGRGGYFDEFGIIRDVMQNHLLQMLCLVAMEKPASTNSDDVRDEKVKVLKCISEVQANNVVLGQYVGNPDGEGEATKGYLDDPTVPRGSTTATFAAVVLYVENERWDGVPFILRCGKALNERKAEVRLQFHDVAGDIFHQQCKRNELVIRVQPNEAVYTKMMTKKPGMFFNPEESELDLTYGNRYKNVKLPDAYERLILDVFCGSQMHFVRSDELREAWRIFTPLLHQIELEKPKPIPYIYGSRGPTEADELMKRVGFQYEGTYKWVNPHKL
Chain of Beta Lactamase (Q932Y6 whole entry): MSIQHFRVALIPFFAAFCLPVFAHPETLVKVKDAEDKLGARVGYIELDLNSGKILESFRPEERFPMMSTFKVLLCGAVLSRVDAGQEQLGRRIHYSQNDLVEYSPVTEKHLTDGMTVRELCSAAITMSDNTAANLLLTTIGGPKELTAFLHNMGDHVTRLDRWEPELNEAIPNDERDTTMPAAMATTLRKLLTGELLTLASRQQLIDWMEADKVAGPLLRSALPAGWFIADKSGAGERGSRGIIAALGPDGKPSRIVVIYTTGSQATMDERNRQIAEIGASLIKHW
Chain of Melanocortin receptor 4 (P32245 whole entry): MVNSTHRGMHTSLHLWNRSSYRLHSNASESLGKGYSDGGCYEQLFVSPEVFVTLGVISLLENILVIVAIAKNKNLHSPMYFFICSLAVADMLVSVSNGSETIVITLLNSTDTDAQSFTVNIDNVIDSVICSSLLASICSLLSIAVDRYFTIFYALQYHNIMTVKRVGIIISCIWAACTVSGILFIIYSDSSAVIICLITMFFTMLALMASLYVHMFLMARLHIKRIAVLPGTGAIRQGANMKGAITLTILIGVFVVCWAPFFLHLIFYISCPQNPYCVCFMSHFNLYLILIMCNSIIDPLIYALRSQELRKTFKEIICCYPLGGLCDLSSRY

What does the source list for Cc1ccc(NC(=O)c2cc(N3C(=O)C=CC3=O)ccc2N2CCOCC2)cc1Cl?
EC50 [1]: 6.37 µM (active); EC50 [2]: 12 µM (active); EC50 [3]: 13.4 µM (active); AC50 [4]: < 0.195 µM (active); IC50 [5]: 9.48 µM (active); IC50 [6]: 48.1 µM (inactive); EC50 [7]: 6.68 µM (active); IC50 [8]: 8.43 µM (active); IC50 [9]: 28.6 µM (inactive); IC50 [10]: 1.7 µM (active); EC50 [11]: 2.01 µM (active)

With Nc1c(C(=O)NC2CCCCC2)nsc1C(=O)OCC(=O)NC1CCCCC1 as the compound, how does the IC50 [12] read?
Its IC50 is 1.88 µM (active).

And the CC50 [13]?
The CC50 was > 100 µM (active).

What about the CC50 [14] of the same compound?
The CC50 was > 50 µM (active).

And the CC50 [15]?
The CC50 was > 100 µM (active).

What about the CC50 [16] of the same compound?
Its CC50 is > 100 µM (active).

And the CC50 [17]?
Its CC50 is > 50 µM (active).

What about the CC50 [18] of the same compound?
Its CC50 is > 50 µM (active).

And the CC50 [19]?
The CC50 was > 100 µM (active).

For COc1ccc(OC)c(NS(=O)(=O)c2ccc(N3CCCC3=O)cc2)c1, which EC50 [20] is on record?
The EC50 was 0.247 µM (active).

What about the EC50 [21] of the same compound?
The EC50 was 27.9 µM (inconclusive).

And the EC50 [22]?
Its EC50 is 0.812 µM (active).

What about the EC50 [23] of the same compound?
The EC50 was 1.26 µM (inconclusive).

And the EC50 [24]?
The EC50 was 0.463 µM (active).

And the IC50 [25]?
Its IC50 is > 80 µM (inactive).

What about the EC50 [26] of the same compound?
Its EC50 is 22.1 µM (active).

What about the EC50 [27] of the same compound?
The EC50 was 7.75 µM (active).

What about the EC50 [28] of the same compound?
Its EC50 is 3.37 µM (active).

Reference: ChEMBL document CHEMBL1201862, “PubChem BioAssay data set” (2004)
